In patent US20110124877A1, “5-BENZYL-4-AZOLYLMETHYL-4-SPIRO[2.4]HEPTANOL DERIVATIVES, METHODS FOR PRODUCING THE SAME, AND AGRO-HORTICULTURAL AGENTS AND INDUSTRIAL MATERIAL PROTECTING AGENTS THEREOF” (KUREHA CORPORATION, priority 2008, published 2011):

Key:
[1] = test system: wheat septoria bloth microorganism (Septoria tritici); experiment: Antimicroorganism effect, mycelial extension on PDA plate; assay type: cell-based; settings: Zymoseptoria tritici, PDA plate medium, 50 mg/l, 1 to 3 days, read-out: growth inhibition grade
[2] = test system: wheat stagonospora blotch microorganism (Phaeosphaeria nodorum); experiment: as above; assay type: cell-based; settings: Parastagonospora nodorum, PDA plate medium, 50 mg/l, 1 to 3 days, read-out: growth inhibition grade
[3] = test system: wheat eye spot microorganism (Pseudocercosporella herpotrichoides); experiment: as above; assay type: cell-based; settings: Oculimacula yallundae, PDA plate medium, 50 mg/l, 1 to 3 days, read-out: growth inhibition grade
[4] = test system: wheat pink snow mold microorganism (Microdochium nivale); experiment: as above; assay type: cell-based; settings: PDA plate medium, 50 mg/l, 1 to 3 days, read-out: growth inhibition grade
[5] = test system: wheat take-all microorganism (Gaeumannomyces graminis); experiment: as above; assay type: cell-based; settings: PDA plate medium, 50 mg/l, 1 to 3 days, read-out: growth inhibition grade
[6] = test system: barley stripe microorganism (Pyrenophora graminea); experiment: as above; assay type: cell-based; settings: PDA plate medium, 50 mg/l, 1 to 3 days, read-out: growth inhibition grade
[7] = test system: barley scald microorganism (Rhynchosporium secalis); experiment: as above; assay type: cell-based; settings: PDA plate medium, 50 mg/l, 1 to 3 days, read-out: growth inhibition grade
[8] = test system: wheat fusarium blight microorganism (Fusarium graminearum); experiment: microbe, parasite or virus in culture; assay type: cell-based; settings: read-out: growth inhibition grade
[9] = test system: barley loose smut microorganism (Ustilago nuda); experiment: Antimicroorganism effect, mycelial extension on PDA plate; assay type: cell-based; settings: PDA plate medium, 50 mg/l, 1 to 3 days, read-out: growth inhibition grade
[10] = test system: rice blast microorganism (Pyricularia oryzae); experiment: microbe, parasite or virus in culture; assay type: cell-based; settings: read-out: growth inhibition grade
[11] = test system: ricesheath blight microorganism (Rhizoctonia solani); experiment: Antimicroorganism effect, mycelial extension on PDA plate; assay type: cell-based; settings: PDA plate medium, 50 mg/l, 1 to 3 days, read-out: growth inhibition grade
[12] = test system: rice bakanae disease microorganism (Giberella fujikuroi); experiment: as above; assay type: cell-based; settings: PDA plate medium, 50 mg/l, 1 to 3 days, read-out: growth inhibition grade
[13] = test system: rice seedling blight microorganism (Rhizopus) (Rhizopus oryzae); experiment: as above; assay type: cell-based; settings: Rhizopus arrhizus, PDA plate medium, 50 mg/l, 1 to 3 days, read-out: growth inhibition grade
[14] = test system: apple alternaria blotch microorganism (Alternaria alternata); experiment: as above; assay type: cell-based; settings: PDA plate medium, 50 mg/l, 1 to 3 days, read-out: growth inhibition grade
[15] = test system: sclerotinia rot microorganism (Sclerotinia sclerotiorum); experiment: as above; assay type: cell-based; settings: PDA plate medium, 50 mg/l, 1 to 3 days, read-out: growth inhibition grade
[16] = test system: gray mold microorganism (Botritis cinerea); experiment: as above; assay type: cell-based; settings: PDA plate medium, 50 mg/l, 1 to 3 days, read-out: growth inhibition grade
[17] = test system: anthracnose microorganism (Glomerella cingulata); experiment: as above; assay type: cell-based; settings: Colletotrichum gloeosporioides, PDA plate medium, 50 mg/l, 1 to 3 days, read-out: growth inhibition grade
[18] = test system: cucumber fusarium wilt microorganism (Fusarium oxysporum); experiment: as above; assay type: cell-based; settings: PDA plate medium, 50 mg/l, 1 to 3 days, read-out: growth inhibition grade
[19] = test system: citrous blue mold microorganism (Penicillium italicum); experiment: as above; assay type: cell-based; settings: PDA plate medium, 50 mg/l, 1 to 3 days, read-out: growth inhibition grade
[20] = test system: sugar beet cercospora leaf spot microorganism (Cercospora beticola); experiment: as above; assay type: cell-based; settings: PDA plate medium, 50 mg/l, 1 to 3 days, read-out: growth inhibition grade
[21] = test system: Aspergillus microorganism (Aspergillus sp.); experiment: as above; assay type: cell-based; settings: PDA plate medium, 50 mg/l, 1 to 3 days, read-out: growth inhibition grade
[22] = test system: Tricoderma microorganism (Trichoderma sp.); experiment: as above; assay type: cell-based; settings: PDA plate medium, 50 mg/l, 1 to 3 days, read-out: growth inhibition grade
[23] = test system: penicillium microorganism (Penicillium sp.); experiment: as above; assay type: cell-based; settings: PDA plate medium, 50 mg/l, 1 to 3 days, read-out: growth inhibition grade
[24] = test system: Cladosporium microorganism (Cladosporium sp.); experiment: as above; assay type: cell-based; settings: PDA plate medium, 50 mg/l, 1 to 3 days, read-out: growth inhibition grade
[25] = test system: Mucor microorganism (Mucor sp.); experiment: as above; assay type: cell-based; settings: PDA plate medium, 50 mg/l, 1 to 3 days, read-out: growth inhibition grade
[26] = test system: Aureobasidium microorganism (Aureobasidium sp.); experiment: as above; assay type: cell-based; settings: PDA plate medium, 50 mg/l, 1 to 3 days, read-out: growth inhibition grade
[27] = test system: Curvularia microorganism (Curvularia sp.); experiment: as above; assay type: cell-based; settings: PDA plate medium, 50 mg/l, 1 to 3 days, read-out: growth inhibition grade
[28] = test system: wood denaturing microorganism (Tyromyces palustris); experiment: as above; assay type: cell-based; settings: PDA plate medium, 50 mg/l, 1 to 3 days, read-out: growth inhibition grade
[29] = test system: wood denaturing microorganism (Coriolus versicolor); experiment: as above; assay type: cell-based; settings: Trametes versicolor, PDA plate medium, 50 mg/l, 1 to 3 days, read-out: growth inhibition grade
[30] = test system: cucumber gray mold microorganism; experiment: Cucumber gray mold preventing effect assay; assay type: in vivo, Botrytis cinerea; settings: analogous assay at 25 mg/l
Procedure: The sprayed leaves were air-dried, and loaded with a paper disc (8 mm in diameter) soaked with a spore suspension of a cucumber gray mold microorganism, and kept at 20 degrees C. and a high humidity. 4 Days after inoculation, the cucumber gray mold severity was investigated, and the protective value was calculated by the following equation. [table]

For `OC1(Cn2cncn2)C(Cc2ccc(F)cc2)CCC12CC2` (single isomer, unassigned) [Compound I-7, 5-(4-fluorobenzyl)-4-(1H-1,2,4-triazol-1-ylmethyl)-4-spiro[2.4]heptanol], the inhibition at 50 µg/mL [1] was > 90%, the inhibition at 50 µg/mL [2] was > 90% and the inhibition at 50 µg/mL [3] was > 90%. The inhibition at 50 µg/mL [4] was 70 to 90%, the inhibition at 50 µg/mL [5] was > 90% and the inhibition at 50 µg/mL [6] was > 90%. The inhibition at 50 µg/mL [7] was > 90%, the inhibition at 50 µg/mL [8] was > 90% and the inhibition at 50 µg/mL [9] was 70 to 90%. The inhibition at 50 µg/mL [10] was > 90%, the inhibition at 50 µg/mL [11] was 70 to 90% and the inhibition at 50 µg/mL [12] was > 90%. For the same compound, the inhibition at 50 µg/mL [13] was 70 to 90%, the inhibition at 50 µg/mL [14] was 70 to 90% and the inhibition at 50 µg/mL [15] was > 90%. For the same compound, the inhibition at 50 µg/mL [16] was > 90%, the inhibition at 50 µg/mL [17] was > 90% and the inhibition at 50 µg/mL [18] was > 90%. The inhibition at 50 µg/mL [19] was > 90%, the inhibition at 50 µg/mL [20] was > 90% and the inhibition at 50 µg/mL [21] was > 90%. The inhibition at 50 µg/mL [22] was > 90%, the inhibition at 50 µg/mL [23] was > 90% and the inhibition at 50 µg/mL [24] was > 90%. It also gave an inhibition at 50 µg/mL [25] of 70 to 90%, an inhibition at 50 µg/mL [26] of 70 to 90% and an inhibition at 50 µg/mL [27] of 70 to 90%. For the same compound, the inhibition at 50 µg/mL [28] was > 90%, the inhibition at 50 µg/mL [29] was > 90% and the melting point was 89 to 90 °C.
With `OC1(Cn2cncn2)C(Cc2ccc(F)cc2)CCC12CC2` (single isomer, unassigned) [Compound I-8, 5-(4-fluorobenzyl)-4-(1H-1,2,4-triazol-1-ylmethyl)-4-spiro[2.4]heptanol] the melting point was 139 to 140 °C.
For `C[C@]12C[C@H]1C[C@H](Cc1ccc(Cl)cc1)[C@@]2(O)Cn1cncn1` (stereo in doubt) [Comparative Compound (A), 3-(4-chlorobenzyl)-1-methyl-2-(1H-1,2,4-triazol-1-ylmethyl)bicyclo[3.1.0]hexan-2-ol, reference compound], the Controlling value [30] was 54%.
With `CC1(C)CC12CCC(Cc1ccc(Cl)cc1)C2(O)Cn1cncn1` (stereo not shown) [Compound I-101, 5-(4-chlorobenzyl)-1,1-dimethyl-4-(1H-1,2,4-triazol-1-ylmethyl)-4-spiro[2.4]heptanol] the inhibition at 50 µg/mL [1] was > 90%, the inhibition at 50 µg/mL [2] was > 90% and the inhibition at 50 µg/mL [3] was > 90%. For the same compound, the inhibition at 50 µg/mL [4] was 70 to 90%, the inhibition at 50 µg/mL [5] was > 90% and the inhibition at 50 µg/mL [6] was > 90%. For the same compound, the inhibition at 50 µg/mL [7] was > 90%, the inhibition at 50 µg/mL [8] was > 90% and the inhibition at 50 µg/mL [9] was 70 to 90%. For the same compound, the inhibition at 50 µg/mL [10] was > 90%, the inhibition at 50 µg/mL [11] was 70 to 90% and the inhibition at 50 µg/mL [12] was > 90%. The inhibition at 50 µg/mL [13] was 70 to 90%, the inhibition at 50 µg/mL [14] was 70 to 90% and the inhibition at 50 µg/mL [15] was > 90%. The inhibition at 50 µg/mL [16] was > 90%, the inhibition at 50 µg/mL [17] was > 90% and the inhibition at 50 µg/mL [18] was > 90%. For the same compound, the inhibition at 50 µg/mL [19] was > 90%, the inhibition at 50 µg/mL [20] was > 90% and the inhibition at 50 µg/mL [21] was > 90%. For the same compound, the inhibition at 50 µg/mL [22] was > 90%, the inhibition at 50 µg/mL [23] was > 90% and the inhibition at 50 µg/mL [24] was > 90%. The inhibition at 50 µg/mL [25] was 70 to 90%, the inhibition at 50 µg/mL [26] was 70 to 90% and the inhibition at 50 µg/mL [27] was 70 to 90%. The inhibition at 50 µg/mL [28] was > 90% and the inhibition at 50 µg/mL [29] was > 90%.
